Laboratory results: publication PMC6934184, “Selective DNA-PKcs inhibition extends the therapeutic index of localized radiotherapy and chemotherapy” (The Journal of Clinical Investigation, 2019)

Target: T1, LIMK1 (Homo sapiens, UniProt P53667)
T1 construct: purchased Thermo Fisher Scientific (Life Technologies) SelectScreen
Assay: SelectScreen LanthaScreen
Type: binding
Details: read-out: % displacement
Outline: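 SelectScreen broad panel; activity (Z'LYTE, Adapta) plus binding formats. ATP: Km app for CSF1R Z'LYTE; 10 for CAMK1 Adapta. Readout = % per kinase.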

T1 sequence (P53667 whole entry): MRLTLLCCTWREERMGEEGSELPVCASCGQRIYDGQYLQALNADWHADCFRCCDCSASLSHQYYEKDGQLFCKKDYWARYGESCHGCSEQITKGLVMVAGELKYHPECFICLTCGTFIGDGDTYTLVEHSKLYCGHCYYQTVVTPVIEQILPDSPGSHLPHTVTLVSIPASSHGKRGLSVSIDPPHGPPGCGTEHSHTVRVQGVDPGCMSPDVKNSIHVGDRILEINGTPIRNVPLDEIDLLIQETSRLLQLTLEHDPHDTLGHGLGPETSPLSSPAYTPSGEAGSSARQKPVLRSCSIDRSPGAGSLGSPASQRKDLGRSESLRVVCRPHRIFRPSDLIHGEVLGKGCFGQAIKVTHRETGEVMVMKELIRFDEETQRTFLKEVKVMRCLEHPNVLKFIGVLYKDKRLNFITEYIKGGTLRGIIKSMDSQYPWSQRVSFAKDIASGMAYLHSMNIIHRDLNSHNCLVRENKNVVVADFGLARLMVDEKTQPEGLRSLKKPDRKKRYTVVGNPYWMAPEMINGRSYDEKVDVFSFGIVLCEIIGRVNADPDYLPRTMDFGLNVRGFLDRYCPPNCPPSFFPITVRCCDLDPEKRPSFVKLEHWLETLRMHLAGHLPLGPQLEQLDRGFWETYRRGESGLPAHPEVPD

## CN(C(=O)CN1CCOCC1)c1ccc2sc3c(-c4cccc5c(=O)cc(N6CC7CCC(C6)O7)oc45)cccc3c2c1 [NU5455]
  inhibition at 1 µM: -1.7%
